Results published in US20230405003A1, “APPLICATION OF THYMIDINE DERIVATIVE IN PREPARATION OF DRUGS” (ONQUALITY PHARMACEUTICALS CHINA LTD., priority 2020, published 2023).
Read-outs that look alike come from different tables or passages of the source.

Experiments:
[1] = test system: 5-FU-induced diarrhea in Balb/c mice; assay: 5-FU-induced diarrhea mouse model (175 mg/kg single i.p.); format: in vivo; details: 5-FU 175 mg/kg single i.p.; for Survival Rate / Average Diarrhea Grade: 6 days; for Average Diarrhea Grade: score 0-4
Description: 7-8-week-old male Balb/c mice were used to establish a 5-FU induced diarrhea model to test the effect of the thymidine derivative or the combination of thymidine derivative and uridine derivative on the relief of diarrhea.
Modeling dose of 5-Fu: 175 mg/kg; single administration, intraperitoneal injection (ip.);
Administration mode of the compound to test (thymidine derivative or combination of thymidine derivative and uridine derivative): single administration, by gavage, advance administration of the compound to test at various time points prior to intraperitoneal injection of 5-FU. The compound to test was administered 1 h prior to the administration of 5-FU, a certain amount of 5-FU was injected intraperitoneally 1 h later, and the compound to test was administered once again 7 h after the injection of 5-FU.
The mice were fed and adapted for one week, and then divided into groups, with 10 mice in each group for administration test.
The mice in the Group of blank was injected with 0.9% NaCl, and evaluated the effect by observing the change of diarrhea grade, food uptake, and weight change. The severity of diarrhea was scored in accordance with the following standards: 0: normal feces, 1: soft feces, 2: slightly wet, soft feces, 3: wet, unformed feces, with moderate coloration in perianal region, 4: watery feces with heavy coloration of hair in perianal region. The severity of diarrhea was evaluated by occurrence scores of various grades of diarrhea (Scores 0 to 4) and average score of diarrhea. […] The models were stable, and satisfied the experimental requirements.
5-FU was dissolved in a 0.9% NaCl solution, the mice in the model group and the treatment group were all i.p. injected at a dose of 175 mg/kg/d, […]. While modeling of injection administration of 5-FU, the thymidine derivative or the combination of thymidine derivative and uridine derivative was administered by gavage, and the compounds to test were dissolved in a PBS solution containing 5% DMSO+1% HPMC. Body weight was weighed daily to count the weight change (Δ % BW, the weight changes recorded in the table were the values on Day 6), and the food was weighed daily to calculate the food uptake. The mice were daily observed for their clinical status, e.g., activity, diarrhea, hair, fighting, etc. After 6 days, the experiments were completed and statistically analyzed for the results.

HaCaT cells = assay: Relief of 5-FU proliferative toxicity to HaCaT cells (CCK-8 cell survival); format: cell-based; details: for Cell Survival Rate (increased percentage of cell survival compared with the Group of 5-FU): 5-Fu 20 μM, HaCaT cells
Description: The cultured skin cell HaCaTs were digested, counted, and inoculated into a 96-well plate with 5000-10000 cells in each well. After 24 h of culture, the wells were divided into Group of blank solvent control, Group of 5-FU, Group of 5-FU+thymidine derivative, Group of 5-FU+the combination of thymidine derivative and uridine derivative. […] adding a solution of 5-FU and a solution of thymidine derivative (the final concentrations of 5-FU and thymidine derivative are shown in Table 3, the solution of thymidine is an aqueous solution, while the solutions of thymidine derivatives are all DMSO solutions); Group of 5-FU+the combination of thymidine derivative and uridine derivative: adding a solution of 5-FU and a mixed solution of thymidine derivative and uridine derivative (the final concentrations of the solution of 5-FU and the mixed solution of thymidine derivative+uridine derivative are shown in Table 3, the solution of thymidine is an aqueous solution, while the mixed solutions of thymidine derivative+uridine derivative are all DMSO solutions); Group of blank solvent control: adding the same type of solution as those of the corresponding Group of 5-FU or Group of 5-FU+thymidine derivative (or the mixed solution of thymidine derivative+uridine derivative) in equal volume. Group of blank solvent control was used as control to exclude the influence of the solvents in Group of 5-FU and Group of 5-FU+thymidine derivative (or the mixed solution of thymidine derivative+uridine derivative) on the results. After additional 48 hours of culture, a Cell Counting Kit-8 (CCK-8) detection kit (C0037, purchased from Shanghai Beyotime Biotechnology) is used to determine the cell survival rate, thereby calculating the proliferative toxicity of 5-Fu/5-DFUR on cells and the relieving effect of the thymidine derivative (or the mixed solution of thymidine derivative+uridine derivative) on the proliferative toxicity. Using GraphPad Prism 6.0 software, the results were statistically analyzed by t-test and plotted.
(§1) Table 3 lists the combinations of 5-FU and thymidine derivative (or the mixed solution of thymidine derivative+uridine derivative), and the corresponding experimental results (wherein the data in the column of cell survival indicate the corresponding increased percentage of the cell survivals of Group of 5-FU+thymidine derivative or Group of 5-FU+the combination of thymidine derivative and uridine derivative compared with the Group of 5-FU). FIGS. 3-10 list the experimental results of several representative compounds.
The effect of thymidine derivative or a combination of thymidine derivative and uridine derivative on relieving the proliferative toxicity of a chemotherapeutical drug (5-FU) to HaCaT cells was tested according to the method in Examples 2-29. The test thymidine derivative or the combination of thymidine derivative and uridine derivative, as well as the final concentration of the test compounds were shown in Table 7.
as §1, with “7” for “3”, “15-21” for “3-10”, “exemplary” for “representative”

[2] = test system: hand-foot syndrome caused by capecitabine in Balb/c mice; assay: Mouse model of hand-foot syndrome caused by capecitabine, gel application or oral administration; format: in vivo; details: Mus musculus, 192 h, capecitabine 1000 mg/kg once daily, oral 200 mpk twice per day, 8 days
Description: A mouse animal model was established. 6-week aged male Balb/c mice were administered with capecitabine by daily gavage. After a few days, mice's paws developed hand-foot syndrome symptoms (similar to the results of the rat model, such as, in FIG. 13). Similar to the human body, mice developed hand-foot syndrome in the forepaws and hind paws after oral administration of capecitabine. The causes of the two are the same, and the disorder is also very similar. Therefore, mice are very good animal models for simulating the hand-foot syndrome caused by capecitabine.
After Balb/c mice were fed and adapted for one week (about 20 g), the mice were divided into groups, with 10 mice in each group. Then, the mice were subject to gavage administration. Capecitabine was dissolved in normal saline with pH=8, and the gavage dose was not greater than 0.3 mL at each time. After gavage, the blank gel was applied to the forepaws and the hind paws (about 4*0.5 cm*0.5 cm) in group of blank gel, and gels containing different drugs were applied to the forepaws and the hind paws (about 4*0.5 cm*0.5 cm) in group of administration. After application, the mice were fixed in Elizabethan collar for 4 hours. After 4 hours, the mice were released, wiped with clean water to remove any residual drug at the application site, and allowed back to the cage. The gavage and application tests are repeated daily until the group of blank has developed obvious hand-foot syndrome. […] Additionally, the thymidine derivative and the combination of thymidine derivative and uridine derivative were orally administered for observing the relief of the hand-foot syndrome. In examples 41-48, thymidine derivative and/or uridine derivative were/was applied, and in examples 49-52, thymidine derivative and/or uridine derivative were/was administered orally.
Table 5 lists the combinations of animal experiments of capecitabine and thymidine derivative (or a combination of thymidine derivative and uridine derivative) and the corresponding experimental results (wherein the data in the column of control rate=the occurrence rate of hand-foot syndrome in group of blank—the occurrence rate of hand-foot syndrome in group of administration).
The effect of thymidine derivative or a combination of thymidine derivative and uridine derivative on a mouse model with chemotherapeutic drug (capecitabine)-induced hand-foot syndrome was tested according to the method in Examples 41-52. Wherein, the drugs were administered transdermally for Examples 119-120 and orally for Examples 121-123.
The test thymidine derivative or the combination of thymidine derivative and uridine derivative, as well as the final concentration of the test compounds were shown in Table 9. Table 9 lists the combinations of animal experiments of capecitabine and the thymidine derivative gel (or a compounded gel of thymidine derivative and uridine derivative) and the corresponding experimental results (wherein the data in the column of control rate=the occurrence rate of hand-foot syndrome in Group of blank—the occurrence rate of hand-foot syndrome in Group of administration).

[3] = selected compound final concentration 0.8 μM
[4] = selected compound final concentration 1.6 μM
[5] = selected compound final concentration 3.13 μM
[6] = selected compound final concentration 6.25 μM
[7] = selected compound final concentration 12.5 μM
[8] = selected compound final concentration 25 μM
[9] = selected compound final concentration 50 μM

| Structure (SMILES) | Δ % BW (on Day 6) ([1]; 15 mpk gavage) | Survival Rate ([1]; 15 mpk gavage) | Average Diarrhea Grade ([1]; 15 mpk gavage) | Cell Survival Rate (increased percentage of cell survival compared with the Group of 5-FU) (HaCaT cells; [3]) | Cell Survival Rate (increased percentage of cell survival compared with the Group of 5-FU) (HaCaT cells; [4]) | Cell Survival Rate (increased percentage of cell survival compared with the Group of 5-FU) (HaCaT cells; [5]) | Cell Survival Rate (increased percentage of cell survival compared with the Group of 5-FU) (HaCaT cells; [6]) | Cell Survival Rate (increased percentage of cell survival compared with the Group of 5-FU) (HaCaT cells; [7]) | Cell Survival Rate (increased percentage of cell survival compared with the Group of 5-FU) (HaCaT cells; [8]) | Cell Survival Rate (increased percentage of cell survival compared with the Group of 5-FU) (HaCaT cells; [9]) | other results |
| --- | --- | --- | --- | --- | --- | --- | --- | --- | --- | --- | --- |
| CCC(CC)COC(=O)[C@H](C)N[P@@](=O)(Oc1ccccc1)O[C@H]1C[C@H](n2cc(C)c(=O)[nH]c2=O)O[C@@H]1CO [T49] | −1.97% ± 0.67% | 80% | 0.75 | 35%-42% | 56%-63% | 72%-79% | 68%-74% | 36%-44% | – | – | – |
| CCC(CC)COC(=O)[C@H](C)N[P@](=O)(OC[C@H]1O[C@@H](n2cc(C)c(=O)[nH]c2=O)C[C@@H]1O)Oc1ccccc1 [T48] | −1.97% ± 0.67% | 100% | 1.3 | 26%-34% | 38%-46% | 41%-48% | 66%-73% | 68%-76% | 77%-85% | 69%-76% | – |
| CCCC(=O)OC[C@H]1O[C@@H](n2cc(C)c(=O)[nH]c2=O)C[C@@H]1OC(=O)CCC [T6, ((2R,3S,5R)-3-(butyryloxy)-5-(5-methyl-2,4-dioxo-3,4-dihydropyrimidin-1(2H)-yl)tetrahydrofuran-2-yl)methyl Butyrate] | – | – | – | – | – | – | – | – | – | – | activation at 1 µM (HaCaT cells; Homo sapiens, HaCaT, increase vs Group of 5-FU, 5-FU 20 μM, compound 1 μM, 48 h, read-out: Cell Survival Rate): 27 to 34%; activation at 5 µM (HaCaT cells; Homo sapiens, HaCaT, increase vs Group of 5-FU, 5-FU 20 μM, compound 5 μM, 48 h, read-out: Cell Survival Rate): 40 to 48%; activation at 10 µM (HaCaT cells; Homo sapiens, HaCaT, increase vs Group of 5-FU, 5-FU 20 μM, compound 10 μM, 48 h, read-out: Cell Survival Rate): 55 to 65%; activation at 50 µM (HaCaT cells; Homo sapiens, HaCaT, increase vs Group of 5-FU, 5-FU 20 μM, compound 50 μM, 48 h, read-out: Cell Survival Rate): 65 to 75%; activation at 100 µM (HaCaT cells; Homo sapiens, HaCaT, increase vs Group of 5-FU, 5-FU 20 μM, compound 100 μM, 48 h, read-out: Cell Survival Rate): 68 to 75%; activation at 200 µM (HaCaT cells; Homo sapiens, HaCaT, increase vs Group of 5-FU, 5-FU 20 μM, compound 200 μM, 48 h, read-out: Cell Survival Rate): 85 to 95%; inhibition in vivo at 200 mg/kg ([2]; read-out: Control Rate Forepaws): 65%; inhibition in vivo at 200 mg/kg ([2]; read-out: Control Rate Hindpaws): 77.5% |
| Cc1cn([C@H]2C[C@H](O)[C@@H](COC(=O)C(C)c3cccc(C(=O)c4ccccc4)c3)O2)c(=O)[nH]c1=O (stereo partly shown) [T33] | – | – | – | 36%-42% | 37%-44% | 39%-49% | 36%-42% | 55%-63% | 64%-71% | 66%-73% | Δ % BW (on Day 6) ([1]; 50 mpk gavage): 4.18% ± 0.56%; Survival Rate ([1]; 50 mpk gavage): 100%; Average Diarrhea Grade ([1]; 50 mpk gavage): 1; Cell Survival Rate (increased percentage of cell survival compared with the Group of 5-FU) (HaCaT cells; selected compound final concentration 100 μM): 55%-63% |
